# Like-named read-outs stand apart in the source and are kept apart here.
# What was measured:
# Assay in all cases: Test D pre-/postemergence plant response
# Type in all cases: in vivo
# [1] = system: blackgrass (Alopecurus myosuroides); details: Alopecurus myosuroides; for pest or weed control at 16 g/ha: 16 g ai/ha; for pest or weed control at 31 g/ha: 31 g ai/ha; for pest or weed control at 62 g/ha: 62 g ai/ha; for pest or weed control at 125 g/ha: 125 g ai/ha
# Procedure, shortened: (§1)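 0 = no effect, 100 = complete control: plants were scored this way by visual comparison with controls 13 to 15 days post-treatment. Application was preemergence to sown loam/sand pots or postemergence to 2–18 cm seedlings in peat-based mix.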
# [2] = system: pigweed (Amaranthus retroflexus); details: Amaranthus retroflexus; for pest or weed control at 16 g/ha: 16 g ai/ha; for pest or weed control at 31 g/ha: 31 g ai/ha; for pest or weed control at 62 g/ha: 62 g ai/ha; for pest or weed control at 125 g/ha: 125 g ai/ha
# Procedure, shortened: as §1
# [3] = system: morningglory (Ipomoea coccinea); details: Ipomoea; for pest or weed control at 16 g/ha: 16 g ai/ha; for pest or weed control at 31 g/ha: 31 g ai/ha; for pest or weed control at 62 g/ha: 62 g ai/ha; for pest or weed control at 125 g/ha: 125 g ai/ha
# Procedure, shortened: as §1
# [4] = system: velvetleaf (Abutilon theophrasti); details: Abutilon theophrasti; for pest or weed control at 16 g/ha: 16 g ai/ha; for pest or weed control at 31 g/ha: 31 g ai/ha; for pest or weed control at 62 g/ha: 62 g ai/ha; for pest or weed control at 125 g/ha: 125 g ai/ha
# Procedure, shortened: as §1
# [5] = system: giant foxtail (Setaria faberii); details: Setaria faberi; for pest or weed control at 16 g/ha: 16 g ai/ha; for pest or weed control at 31 g/ha: 31 g ai/ha; for pest or weed control at 62 g/ha: 62 g ai/ha; for pest or weed control at 125 g/ha: 125 g ai/ha
# Procedure, shortened: as §1
# [6] = system: lambsquarters (Chenopodium album); details: Chenopodium album; for pest or weed control at 16 g/ha: 16 g ai/ha; for pest or weed control at 31 g/ha: 31 g ai/ha; for pest or weed control at 62 g/ha: 62 g ai/ha; for pest or weed control at 125 g/ha: 125 g ai/ha
# Procedure, shortened: as §1
# [7] = system: barnyardgrass (Echinochloa crus-galli); details: Echinochloa crus-galli; for pest or weed control at 16 g/ha: 16 g ai/ha; for pest or weed control at 16 g/ha / pest or weed control at 31 g/ha: scale 0 to 100 (0 no effect, 100 complete control); for pest or weed control at 31 g/ha: 31 g ai/ha; for pest or weed control at 62 g/ha: 62 g ai/ha; for pest or weed control at 125 g/ha: 125 g ai/ha
# Procedure, shortened: as §1
# [8] = system: waterhemp (common waterhemp, Amaranthus rudis); details: Amaranthus tuberculatus; for pest or weed control at 16 g/ha: 16 g ai/ha; for pest or weed control at 31 g/ha: 31 g ai/ha; for pest or weed control at 62 g/ha: 62 g ai/ha; for pest or weed control at 125 g/ha: 125 g ai/ha
# Procedure, shortened: as §1
# soybean (Glycine max) = details: Glycine max; for plant injury at 16 g/ha: 16 g ai/ha; for plant injury at 31 g/ha: 31 g ai/ha; for plant injury at 62 g/ha: 62 g ai/ha; for plant injury at 125 g/ha: 125 g ai/ha
# Procedure, shortened: as §1
# [9] = post-emergence, Postemergence, scale 0 to 100 (0 no effect, 100 complete control), read-out: Blackgrass plant response rating
# [10] = post-emergence, Postemergence, scale 0 to 100, 0 no effect, 100 complete control, read-out: Plant response rating, Blackgrass
# [11] = pre-emergence, Preemergence, scale 0 to 100 (0 no effect, 100 complete control), read-out: Plant response rating, Blackgrass
# [12] = post-emergence, Postemergence, scale 0 to 100 (0 no effect, 100 complete control), read-out: Pigweed plant response rating
# [13] = post-emergence, Postemergence, scale 0 to 100, 0 no effect, 100 complete control, read-out: Plant response rating, Pigweed
# [14] = pre-emergence, Preemergence, scale 0 to 100 (0 no effect, 100 complete control), read-out: Plant response rating, Pigweed
# [15] = post-emergence, Postemergence, scale 0 to 100 (0 no effect, 100 complete control), read-out: Morningglory plant response rating
# [16] = post-emergence, Postemergence, scale 0 to 100, 0 no effect, 100 complete control, read-out: Plant response rating, Morningglory
# [17] = pre-emergence, Preemergence, scale 0 to 100 (0 no effect, 100 complete control), read-out: Plant response rating, Morningglory
# [18] = post-emergence, Postemergence, scale 0 to 100 (0 no effect, 100 complete control), read-out: Velvetleaf plant response rating
# [19] = post-emergence, Postemergence, scale 0 to 100, 0 no effect, 100 complete control, read-out: Plant response rating, Velvetleaf
# [20] = pre-emergence, Preemergence, scale 0 to 100 (0 no effect, 100 complete control), read-out: Plant response rating, Velvetleaf
# [21] = post-emergence, Postemergence, scale 0 to 100 (0 no effect, 100 complete control), read-out: Foxtail, Giant plant response rating
# [22] = post-emergence, Postemergence, scale 0 to 100, 0 no effect, 100 complete control, read-out: Plant response rating, Foxtail, Giant
# [23] = pre-emergence, Preemergence, scale 0 to 100 (0 no effect, 100 complete control), read-out: Plant response rating, Foxtail, Giant
# [24] = post-emergence, Postemergence, scale 0 to 100 (0 no effect, 100 complete control), read-out: Lambsquarters plant response rating
# [25] = post-emergence, Postemergence, scale 0 to 100, 0 no effect, 100 complete control, read-out: Plant response rating, Lambsquarters
# [26] = pre-emergence, Preemergence, scale 0 to 100 (0 no effect, 100 complete control), read-out: Plant response rating, Lambsquarters
# [27] = post-emergence, Postemergence, read-out: Barnyardgrass plant response rating
# [28] = post-emergence, Postemergence, scale 0 to 100, 0 no effect, 100 complete control, read-out: Plant response rating, Barnyardgrass
# [29] = pre-emergence, Preemergence, read-out: Plant response rating (scale 0 to 100), Barnyardgrass
# [30] = pre-emergence, Preemergence, read-out: Plant response rating, Barnyardgrass
# [31] = post-emergence, Postemergence, scale 0 to 100 (0 no effect, 100 complete control), read-out: Waterhemp plant response rating
# [32] = post-emergence, Postemergence, scale 0 to 100, 0 no effect, 100 complete control, read-out: Plant response rating, Waterhemp
# [33] = pre-emergence, Preemergence, scale 0 to 100 (0 no effect, 100 complete control), read-out: Plant response rating, Waterhemp
# [34] = post-emergence, Postemergence, scale 0 to 100 (0 no effect, 100 complete control), read-out: Soybean plant response rating
# [35] = post-emergence, Postemergence, scale 0 to 100, 0 no effect, 100 complete control, read-out: Plant response rating, Soybean
# [36] = pre-emergence, Preemergence, scale 0 to 100 (0 no effect, 100 complete control), read-out: Plant response rating, Soybean
smiles,measurement,setting,value
"FC(F)(F)c1cc(-c2ccccc2Oc2ncc(Cl)cn2)on1 [Compound 63, 5-chloro-2-[2-[3-(trifluoromethyl)-5-isoxazolyl]phenoxy]pyrimidine]",pest or weed control at 16 g/ha,[1]; [9],5%
same,pest or weed control at 31 g/ha,[1]; [9],10%
same,pest or weed control at 62 g/ha,[1]; [10],20%
same,pest or weed control at 125 g/ha,[1]; [10],25%
same,pest or weed control at 125 g/ha,"[1]; pre-emergence, Preemergence, read-out: Plant response rating (scale 0 to 100), Blackgrass",90%
same,pest or weed control at 16 g/ha,[1]; [11],30%
same,pest or weed control at 31 g/ha,[1]; [11],85%
same,pest or weed control at 62 g/ha,[1]; [11],90%
same,pest or weed control at 16 g/ha,[2]; [12],85%
same,pest or weed control at 31 g/ha,[2]; [12],85%
same,pest or weed control at 62 g/ha,[2]; [13],90%
same,pest or weed control at 125 g/ha,[2]; [13],95%
same,pest or weed control at 125 g/ha,"[2]; pre-emergence, Preemergence, read-out: Plant response rating (scale 0 to 100), Pigweed",100%
same,pest or weed control at 16 g/ha,[2]; [14],95%
same,pest or weed control at 31 g/ha,[2]; [14],100%
same,pest or weed control at 62 g/ha,[2]; [14],100%
same,pest or weed control at 16 g/ha,[3]; [15],50%
same,pest or weed control at 31 g/ha,[3]; [15],50%
same,pest or weed control at 62 g/ha,[3]; [16],98%
same,pest or weed control at 125 g/ha,[3]; [16],70%
same,pest or weed control at 125 g/ha,"[3]; pre-emergence, Preemergence, read-out: Plant response rating (scale 0 to 100), Morningglory",60%
same,pest or weed control at 16 g/ha,[3]; [17],0%
same,pest or weed control at 31 g/ha,[3]; [17],0%
same,pest or weed control at 62 g/ha,[3]; [17],25%
same,pest or weed control at 16 g/ha,[4]; [18],10%
same,pest or weed control at 31 g/ha,[4]; [18],25%
same,pest or weed control at 62 g/ha,[4]; [19],40%
same,pest or weed control at 125 g/ha,[4]; [19],40%
same,pest or weed control at 125 g/ha,"[4]; pre-emergence, Preemergence, read-out: Plant response rating (scale 0 to 100), Velvetleaf",100%
same,pest or weed control at 16 g/ha,[4]; [20],40%
same,pest or weed control at 31 g/ha,[4]; [20],100%
same,pest or weed control at 62 g/ha,[4]; [20],100%
same,pest or weed control at 16 g/ha,[5]; [21],0%
same,pest or weed control at 31 g/ha,[5]; [21],5%
same,pest or weed control at 62 g/ha,[5]; [22],10%
same,pest or weed control at 125 g/ha,[5]; [22],20%
same,pest or weed control at 125 g/ha,"[5]; pre-emergence, Preemergence, read-out: Plant response rating (scale 0 to 100), Foxtail, Giant",100%
same,pest or weed control at 16 g/ha,[5]; [23],30%
same,pest or weed control at 31 g/ha,[5]; [23],80%
same,pest or weed control at 62 g/ha,[5]; [23],98%
same,pest or weed control at 16 g/ha,[6]; [24],10%
same,pest or weed control at 31 g/ha,[6]; [24],70%
same,pest or weed control at 62 g/ha,[6]; [25],85%
same,pest or weed control at 125 g/ha,[6]; [25],90%
same,pest or weed control at 125 g/ha,"[6]; pre-emergence, Preemergence, read-out: Plant response rating (scale 0 to 100), Lambsquarters",95%
same,pest or weed control at 16 g/ha,[6]; [26],95%
same,pest or weed control at 31 g/ha,[6]; [26],90%
same,pest or weed control at 62 g/ha,[6]; [26],90%
same,pest or weed control at 16 g/ha,[7]; [27],5%
same,pest or weed control at 31 g/ha,[7]; [27],10%
same,pest or weed control at 62 g/ha,[7]; [28],10%
same,pest or weed control at 125 g/ha,[7]; [28],10%
same,pest or weed control at 62 g/ha,[7]; [29],98%
same,pest or weed control at 125 g/ha,[7]; [29],100%
same,pest or weed control at 16 g/ha,[7]; [30],30%
same,pest or weed control at 31 g/ha,[7]; [30],65%
same,pest or weed control at 16 g/ha,[8]; [31],85%
same,pest or weed control at 31 g/ha,[8]; [31],85%
same,pest or weed control at 62 g/ha,[8]; [32],98%
same,pest or weed control at 125 g/ha,[8]; [32],98%
same,pest or weed control at 125 g/ha,"[8]; pre-emergence, Preemergence, read-out: Plant response rating (scale 0 to 100), Waterhemp",100%
same,pest or weed control at 16 g/ha,[8]; [33],90%
same,pest or weed control at 31 g/ha,[8]; [33],100%
same,pest or weed control at 62 g/ha,[8]; [33],100%
same,plant injury at 16 g/ha,soybean (Glycine max); [34],35%
same,plant injury at 31 g/ha,soybean (Glycine max); [34],45%
same,plant injury at 62 g/ha,soybean (Glycine max); [35],55%
same,plant injury at 125 g/ha,soybean (Glycine max); [35],98%
same,plant injury at 125 g/ha,"soybean (Glycine max); pre-emergence, Preemergence, read-out: Plant response rating (scale 0 to 100), Soybean",60%
same,plant injury at 16 g/ha,soybean (Glycine max); [36],5%
same,plant injury at 31 g/ha,soybean (Glycine max); [36],15%
same,plant injury at 62 g/ha,soybean (Glycine max); [36],45%

# Source: patent publication US10131652B2, “Pyrimidinyloxy benzene derivatives as herbicides” (E. I. DU PONT DE NEMOURS AND COMPANY, priority 2014, dated 2018)
